In US20190233884A1 (University of Southern California, priority 2016, published 2019):

Tested on: patients with refractory metastatic colorectal cancer (mCRC)
Experiment: PFS, OS and disease control in the training (evaluation) cohort of refractory mCRC patients receiving TAS-102 (n=52, Japan), by baseline characteristics, SNP genotype and toxicity
Format: in vivo, human
Details: for OS HR (95% CI)‡ / PFS HR (95% CI) ‡: multivariable; for OS HR (95% CI)† / PFS HR (95% CI) †: univariate
Method: All patients underwent the treatment in salvage-line setting. […]
(§1) Genomic DNA was extracted from peripheral whole blood in patients of all cohorts using the QIAmp Kit (Qiagen, Valencia, Calif., USA) according to the manufacturer's protocol (www.qiagen.com). The candidate SNPs were genotyped using PCR-based direct DNA sequence analysis by ABI 3100A Capillary Genetic Analyzer and Sequencing Scanner v1.0 (Applied Biosystems). Amplification of extracted DNA was carried out using both forward and reverse primers for each gene polymorphism as shown in Table 1. […] The investigators analyzing SNPs were blinded to the clinical data of the study patients.
The primary endpoint in this study was progression-free survival (PFS), and the secondary endpoints were overall survival (OS) and disease control rate (DCR). PFS was calculated from the date of starting treatment to the first observation of disease progression or death from any cause. If a patient had no disease progression or death, PFS was censored at the date of last follow up. OS was calculated from the date of starting treatment until the date of death from any cause or the date of the last follow-up, at which point OS was censored. The disease control rate (DCR) was defined as the proportion of patients who achieved a stable disease (SD) or […] according to RECISTv1.1. Chi-square test was used to examine the difference in baseline patient characteristics among the three cohorts. Allelic distribution of all SNPs by ethnicity for deviation from Hardy-Weinberg equilibrium and the allelic frequencies of SNPs were tested using the Chi-square tests with one degree of freedom. The associations between candidate SNPs and disease control, and toxicities were examined using contingency tables and Fisher's exact test. The associations of SNPs with PFS and OS were analysed using Kaplan-Meier curves and the log-rank test. Because the true mode of inheritance of candidate SNPs was not established yet, a codominant or dominant genetic model if appropriate was considered.
All patients underwent the treatment in salvage-line setting. […] In all patients, adverse events were graded according to the Common Terminology Criteria for Adverse Events, version 4.0. […]
as §1, with “tested” for “genotyped”, “Biosystems).” for “Biosystems). Amplification of extracted DNA was carried out using both forward and reverse primers for each gene polymorphism as shown in Table 1.”, “data.” for “data of the study patients.”
The primary endpoint in this study was progression-free survival (PFS), and the secondary endpoints were overall survival (OS) and disease control rate (DCR).

Trifluridine/tipiracil [TAS-102]
Disease Control Rate PD: 10 (71%) | Disease Control Rate SD: 4 (29%) | OS median, months (95% CI) (ATR rs2227928 A/A): 5.7 (2.7, 12.4) months | PFS median, months (95% CI) (ATR rs2227928 A/A): 2.1 (1.6, 3.4) months | OS median, months (95% CI) (ATR rs2227928 A/G): 8.1 (4.9, 15.6) months | PFS median, months (95% CI) (ATR rs2227928 A/G): 2.9 (1.6, 3.4) months | OS HR (95% CI)‡ (ATR rs2227928 A/G vs A/A): 0.68 (0.26, 1.74) | PFS HR (95% CI) ‡ (ATR rs2227928 A/G vs A/A): 0.82 (0.41, 1.63) | OS HR (95% CI)† (ATR rs2227928 A/G vs A/A): 0.71 (0.28, 1.78) | PFS HR (95% CI) † (ATR rs2227928 A/G vs A/A): 0.75 (0.38, 1.51) | OS median, months (95% CI) (ATR rs2227928 Any G): 8.3 (6.3, 15.6) months | PFS median, months (95% CI) (ATR rs2227928 Any G): 3.0 (2.1, 3.7) months | OS HR (95% CI)‡ (ATR rs2227928 Any G vs A/A): 0.50 (0.20, 1.27) | PFS HR (95% CI) ‡ (ATR rs2227928 Any G vs A/A): 0.67 (0.35, 1.29) | OS HR (95% CI)† (ATR rs2227928 Any G vs A/A): 0.57 (0.24, 1.40) | PFS HR (95% CI) † (ATR rs2227928 Any G vs A/A): 0.64 (0.33, 1.23) | PFS median, months (95% CI) (ATR rs2227928 G/G): 3.7 (2.1, 6.6) months | OS HR (95% CI)‡ (ATR rs2227928 G/G vs A/A): 0.18 (0.04, 0.93) | PFS HR (95% CI) ‡ (ATR rs2227928 G/G vs A/A): 0.43 (0.17, 1.08) | OS HR (95% CI)† (ATR rs2227928 G/G vs A/A): 0.28 (0.06, 1.31) | PFS HR (95% CI) † (ATR rs2227928 G/G vs A/A): 0.46 (0.19, 1.10) | OS median, months (95% CI) (BRCA1 rs16941 Any C): 8.3 (5.3, 14.8+) months | PFS median, months (95% CI) (BRCA1 rs16941 Any C): 3.0 (2.0, 4.2) months | OS HR (95% CI)‡ (BRCA1 rs16941 Any C vs T/T): 1.14 (0.46, 2.82) | PFS HR (95% CI) ‡ (BRCA1 rs16941 Any C vs T/T): 1.04 (0.54, 2.00) | OS HR (95% CI)† (BRCA1 rs16941 Any C vs T/T): 0.90 (0.38, 2.15) | PFS HR (95% CI) † (BRCA1 rs16941 Any C vs T/T): 0.87 (0.47, 1.64) | PFS median, months (95% CI) (BRCA1 rs16941 C/C): 2.7 (2.0, 4.2) months | OS HR (95% CI)‡ (BRCA1 rs16941 C/C vs T/T): 0.37 (0.05, 3.07) | PFS HR (95% CI) ‡ (BRCA1 rs16941 C/C vs T/T): 1.66 (0.58, 4.74) | OS HR (95% CI)† (BRCA1 rs16941 C/C vs T/T): 0.28 (0.04, 2.20) | PFS HR (95% CI) † (BRCA1 rs16941 C/C vs T/T): 1.06 (0.38, 2.90) | OS median, months (95% CI) (BRCA1 rs16941 T/C): 8.1 (3.4, 14.8+) months | PFS median, months (95% CI) (BRCA1 rs16941 T/C): 3.2 (1.8, 4.6) months | OS HR (95% CI)‡ (BRCA1 rs16941 T/C vs T/T): 1.36 (0.55, 3.40) | PFS HR (95% CI) ‡ (BRCA1 rs16941 T/C vs T/T): 0.94 (0.47, 1.88) | OS HR (95% CI)† (BRCA1 rs16941 T/C vs T/T): 1.13 (0.47, 2.74) | PFS HR (95% CI) † (BRCA1 rs16941 T/C vs T/T): 0.84 (0.43, 1.62) | OS median, months (95% CI) (BRCA1 rs16941 T/T): 6.3 (4.4, 15.6+) months | PFS median, months (95% CI) (BRCA1 rs799917 A/A): 2.7 (2.0, 4.2) months | OS HR (95% CI)‡ (BRCA1 rs799917 A/A vs G/G): 0.37 (0.05, 3.07) | PFS HR (95% CI) ‡ (BRCA1 rs799917 A/A vs G/G): 1.66 (0.58, 4.74) | OS HR (95% CI)† (BRCA1 rs799917 A/A vs G/G): 0.28 (0.04, 2.20) | PFS HR (95% CI) † (BRCA1 rs799917 A/A vs G/G): 1.06 (0.38, 2.90) | OS median, months (95% CI) (BRCA1 rs799917 Any A): 8.3 (5.3, 14.8+) months | PFS median, months (95% CI) (BRCA1 rs799917 Any A): 3.0 (2.0, 4.2) months | OS HR (95% CI)‡ (BRCA1 rs799917 Any A vs G/G): 1.14 (0.46, 2.82) | PFS HR (95% CI) ‡ (BRCA1 rs799917 Any A vs G/G): 1.04 (0.54, 2.00) | OS HR (95% CI)† (BRCA1 rs799917 Any A vs G/G): 0.90 (0.38, 2.15) | PFS HR (95% CI) † (BRCA1 rs799917 Any A vs G/G): 0.87 (0.47, 1.64) | OS median, months (95% CI) (BRCA1 rs799917 G/A): 8.1 (3.4, 14.8+) months | PFS median, months (95% CI) (BRCA1 rs799917 G/A): 3.2 (1.8, 4.6) months | OS HR (95% CI)‡ (BRCA1 rs799917 G/A vs G/G): 1.36 (0.55, 3.40) | PFS HR (95% CI) ‡ (BRCA1 rs799917 G/A vs G/G): 0.94 (0.47, 1.88) | OS HR (95% CI)† (BRCA1 rs799917 G/A vs G/G): 1.13 (0.47, 2.74) | PFS HR (95% CI) † (BRCA1 rs799917 G/A vs G/G): 0.84 (0.43, 1.62) | OS median, months (95% CI) (BRCA1 rs799917 G/G): 6.3 (4.4, 15.6+) months | OS median, months (95% CI) (BRCA2 rs144848 A/A): 8.3 (5.4, 12.4) months | PFS median, months (95% CI) (BRCA2 rs144848 A/A): 2.7 (2.0, 3.4) months | PFS median, months (95% CI) (BRCA2 rs144848 A/C): 3.5 (1.5, 4.9) months | OS HR (95% CI)‡ (BRCA2 rs144848 A/C vs A/A): 0.97 (0.34, 2.76) | PFS HR (95% CI) ‡ (BRCA2 rs144848 A/C vs A/A): 0.82 (0.39, 1.72) | OS HR (95% CI)† (BRCA2 rs144848 A/C vs A/A): 0.91 (0.33, 2.57) | PFS HR (95% CI) † (BRCA2 rs144848 A/C vs A/A): 0.76 (0.37, 1.56) | OS median, months (95% CI) (BRCA2 rs144848 Any C): 8.1 (2.8, 15.6+) months | PFS median, months (95% CI) (BRCA2 rs144848 Any C): 3.3 (1.6, 4.6) months | OS HR (95% CI)‡ (BRCA2 rs144848 Any C vs A/A): 1.14 (0.46, 2.79) | PFS HR (95% CI) ‡ (BRCA2 rs144848 Any C vs A/A): 0.92 (0.48, 1.78) | OS HR (95% CI)† (BRCA2 rs144848 Any C vs A/A): 1.07 (0.44, 2.58) | PFS HR (95% CI) † (BRCA2 rs144848 Any C vs A/A): 0.82 (0.43, 1.54) | OS median, months (95% CI) (BRCA2 rs144848 C/C): 8.1 (2.7, 8.1+) months | PFS median, months (95% CI) (BRCA2 rs144848 C/C): 2.7 (0.9, 6.0+) months | OS HR (95% CI)‡ (BRCA2 rs144848 C/C vs A/A): 1.62 (0.44, 6.02) | PFS HR (95% CI) ‡ (BRCA2 rs144848 C/C vs A/A): 1.28 (0.47, 3.50) | OS HR (95% CI)† (BRCA2 rs144848 C/C vs A/A): 1.48 (0.41, 5.34) | PFS HR (95% CI) † (BRCA2 rs144848 C/C vs A/A): 0.99 (0.38, 2.59) | OS median, months (95% CI) (CHEK2 rs22236142 Any C): 8.3 (5.4, 15.6+) months | PFS median, months (95% CI) (CHEK2 rs22236142 Any C): 2.6 (2.1, 3.4) months | OS HR (95% CI)‡ (CHEK2 rs22236142 Any C vs G/G): 0.66 (0.26, 1.65) | PFS HR (95% CI) ‡ (CHEK2 rs22236142 Any C vs G/G): 1.15 (0.59, 2.22) | OS HR (95% CI)† (CHEK2 rs22236142 Any C vs G/G): 0.84 (0.35, 2.00) | PFS HR (95% CI) † (CHEK2 rs22236142 Any C vs G/G): 1.33 (0.70, 2.50) | OS median, months (95% CI) (CHEK2 rs22236142 C/C): 7.5 (3.3, 15.6+) months | PFS median, months (95% CI) (CHEK2 rs22236142 C/C): 2.7 (1.6, 4.4) months | OS HR (95% CI)‡ (CHEK2 rs22236142 C/C vs G/G): 0.88 (0.28, 2.77) | PFS HR (95% CI) ‡ (CHEK2 rs22236142 C/C vs G/G): 1.18 (0.50, 2.78) | OS HR (95% CI)† (CHEK2 rs22236142 C/C vs G/G): 0.93 (0.31, 2.81) | PFS HR (95% CI) † (CHEK2 rs22236142 C/C vs G/G): 1.15 (0.49, 2.74) | OS median, months (95% CI) (CHEK2 rs22236142 G/C): 8.3 (4.9, 12.4+) months | PFS median, months (95% CI) (CHEK2 rs22236142 G/C): 2.5 (1.8, 3.5) months
